According to PMC2759687 (Journal of medicinal chemistry, 2009):
Square brackets hold non-standard residues; d marks the D form. Peptide text beside a SMILES is read from it. Orn = NCCC[C@H](N)C(=O)O

Tests used:
Test in all cases: Mean activity
Format in all cases: cell-based
[1] = tested on: fungi; settings: geometric mean of MIC values (after 24 h) against 2 fungal strains
[2] = tested on: Gram-negative bacteria; settings: geometric mean of MIC values (after 24 h) against 7 Gram-negative strains
[3] = tested on: Gram-positive bacteria; settings: geometric mean of MIC values (after 24 h) against 7 Gram-positive strains

Question: Which “Mean activity, fungi” value [1] does the source give for `CC(C)C[C@@H]1NC(=O)[C@H](CCCN)NC(=O)[C@H](C(C)C)NC(=O)[C@@H]2CCCN2C(=O)[C@@H](Cc2ccccc2)NC(=O)[C@H](CC(C)C)NC(=O)[C@H](CCCN)NC(=O)[C@H](C(C)C)NC(=O)[C@@H]2CCCN2C(=O)[C@@H](Cc2ccccc2)NC1=O` [GS, gramicidin S] (cyclo(V[Orn]L[dF]PV[Orn]L[dF]P)) here?
Answer: 2.8 µg/mL

Question: And the “Mean Activity, Gram-negative bacteria” value [2]?
Answer: 23.8 µg/mL

Question: What about the “Mean activity, Gram-positive bacteria” value [3] of the same molecule?
Answer: 1.4 µg/mL
